Where two headings read alike, the source gives them in different places.

The test system of this test is IL-1β production in PMA-differentiated THP-1 cells. Put plainly: IL-1β production in PMA-differentiated THP-1 cells stimulated with gramicidin (hTHP-1 assay containing 2% fetal bovine serum). The class given is cell-based, human. To be noted: 2% fetal bovine serum, read-out: hTHP-1 IC50 (Average IC50 of compounds in hTHP-1 assay). An outline of the steps:
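IL-1β release was read by HTRF on supernatants of 50,000 PMA-primed (20 ng/ml, 16-18 h) THP-1 cells/well in 2% FBS medium. Cells saw compound for 1 h (11-point titration from 100 μM, 0.37% DMSO) before a 2 h gramicidin (5 μM) challenge.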

The mark [1] stands for this setting: Homo sapiens, THP-1, Table B1, cells printed as numeric bound.
Where [2] appears, read: Homo sapiens, THP-1, Table B1, class symbols.

As a reminder, the IC50 is the concentration that gives 50% inhibition. Regarding `CC(C)c1cc(F)cc(C(C)C)c1C(C)C(=O)N=S(N)(=O)c1cnc(C(C)(C)O)s1` (single isomer, unassigned) [Example 195, (R, R) or (R, S)-N-(amino (2-(2-hydroxypropan-2-yl)thiazol-5-yl)(oxo)-λ^6-sulfaneylidene)-2-(4-fluoro-2,6-diisopropylphenyl) propanamide], under setting [1], the IC50 was above 30 µM.
With `CC(C)(O)c1ncc(S(N)(=O)=NC(=O)Cc2c(C3CC3)cc(F)cc2C(F)(F)F)s1` (single isomer, unassigned) [Example 196, (R) or (S)-N-(amino (2-(2-hydroxypropan-2-yl)thiazol-5-yl)(oxo)-λ^6-sulfaneylidene)-2-(2-cyclopropyl-4-fluoro-6-(trifluoromethyl)phenyl) acetamide], the IC50 under setting [2] is 5 to 30 µM.
Turning to `CC(C)c1nc(-c2cccc(C(F)(F)F)c2)c(F)c(C(C)C)c1CC(=O)N=S(N)(=O)c1cnc(C(C)(C)O)s1` (single isomer, unassigned) [Example 202, N-(amino(2-(2-hydroxypropan-2-yl)thiazol-5-yl)(oxo)-λ^6-sulfaneylidene)-2-(5-fluoro-2,4-diisopropyl-6-(3-(trifluoromethyl)phenyl)pyridin-3-yl) acetamide], where the note is “Table B1, class symbols”, the 50% inhibitory concentration (IC50) fell in the range of 0.2 to 1 µM.
The same measure, in the same setting: the figure for `CC(C)c1nc(-c2cccc(C(F)(F)F)c2)c(F)c(C(C)C)c1CC(=O)N=S(N)(=O)c1cnc(C(C)(C)O)s1` (single isomer, unassigned) [Example 203, (S) or (R)-N-(amino (2-(2-hydroxypropan-2-yl)thiazol-5-yl)(oxo)-λ^6-sulfaneylidene)-2-(5-fluoro-2,4-diisopropyl-6-(3-(trifluoromethyl)phenyl)pyridin-3-yl) acetamide] is 5 to 30 µM; for `CC(C)c1ncc(F)c(C(C)C)c1CC(=O)N=S(N)(=O)c1cc(C(C)(C)O)cs1` (single isomer, unassigned) [Example 208, N-(amino(4-(2-hydroxypropan-2-yl)thiophen-2-yl)(oxo)-λ^6-sulfaneylidene)-2-(5-fluoro-2,4-diisopropylpyridin-3-yl)acetamide] it is 0.04 to 0.2 µM.
For `CC(C)c1ncc(F)c(C(C)C)c1CC(=O)N=S(N)(=O)c1cc(C(C)(C)O)cs1` (single isomer, unassigned) [Example 209, (S) or (R)-N-(amino(4-(2-hydroxypropan-2-yl)thiophen-2-yl)(oxo)-λ^6-sulfaneylidene)-2-(5-fluoro-2,4-diisopropylpyridin-3-yl)acetamide], the IC50 (Table B1, class symbols) lay within 1 to 5 µM.
Regarding `CC(C)c1ncc(F)c(C(C)C)c1CC(=O)N=S(N)(=O)c1sc(C(C)(C)O)cc1F` (single isomer, unassigned) [Example 210, (S) or (R)-N-(amino (3-fluoro-5-(2-hydroxypropan-2-yl)thiophen-2-yl)(oxo)-λ^6-sulfaneylidene)-2-(5-fluoro-2,4-diisopropylpyridin-3-yl)acetamide], for the setting “Table B1, class symbols”, the concentration for half-maximal inhibition (IC50) lay in the range of 5 to 30 µM.
In the case of `CC(C)c1ncc(F)c(C(C)C)c1CC(=O)N=S(N)(=O)c1sc(C(C)(C)O)cc1F` (single isomer, unassigned) [Example 211, N-(amino(3-fluoro-5-(2-hydroxypropan-2-yl)thiophen-2-yl)(oxo)-λ^6-sulfaneylidene)-2-(5-fluoro-2,4-diisopropylpyridin-3-yl)acetamide], the IC50 (Table B1, class symbols) was in the range of 0.2 to 1 µM.
Regarding `CC(C)c1cc2c(c(C(C)C)c1CC(=O)N=S(N)(=O)c1cnc(C(C)(C)O)s1)CCC2` (single isomer, unassigned) [Example 213, (S) or (R)-N-(amino(2-(2-hydroxypropan-2-yl)thiazol-5-yl)(oxo)-λ^6-sulfaneylidene)-2-(4,6-diisopropyl-2,3-dihydro-1H-inden-5-yl)acetamide], the IC50 under setting [2] was 1 to 5 µM.
On to `CC(C)c1cc(C(F)F)cc(C(C)C)c1CC(=O)N=S(N)(=O)c1ccc(CN(C)C)cc1F` (single isomer, unassigned) [Example 214, (R) or (S)-N-(amino(4-((dimethylamino)methyl)-2-fluorophenyl) (oxo)-λ^6-sulfaneylidene)-2-(4-(difluoromethyl)-2,6-diisopropylphenyl) acetamide], for which, under “Table B1, class symbols”, the IC50 fell in the range of 0.04 to 0.2 µM.
Consider `CC(C)c1cc(C(F)F)cc(C(C)C)c1CC(=O)N=S(N)(=O)c1ccc(CN(C)C)cc1F` (single isomer, unassigned) [Example 215, (S) or (R)-N-(amino(4-((dimethylamino)methyl)-2-fluorophenyl) (oxo)-λ^6-sulfaneylidene)-2-(4-(difluoromethyl)-2,6-diisopropylphenyl) acetamide], for which, where the note is “Table B1, class symbols”, the IC50 lay within 1 to 5 µM.
`CC(C)c1cc2c(c(C(C)C)c1CC(=O)N=S(N)(=O)c1cc(C(C)(C)O)cs1)COC2` (single isomer, unassigned) [Example 216, (R) or (S)-N-(amino (4-(2-hydroxypropan-2-yl)thiophen-2-yl)(oxo)-λ^6-sulfaneylidene)-2-(4,6-diisopropyl-1,3-dihydroiso-benzofuran-5-yl)acetamide]: the IC50 (Table B1, class symbols) is 0.2 to 1 µM.
Still for that read-out and setting: the figure for `CC(C)c1cc2c(c(C(C)C)c1CC(=O)N=S(N)(=O)c1cc(C(C)(C)O)cs1)COC2` (single isomer, unassigned) [Example 217, (S) or (R)-N-(amino (4-(2-hydroxypropan-2-yl)thiophen-2-yl)(oxo)-λ^6-sulfaneylidene)-2-(4,6-diisopropyl-1,3-dihydro-isobenzofuran-5-yl)acetamide] is 5 to 30 µM.
For the compound `CC(C)c1cc(CCC2CCOCC2)cc(C(C)C)c1CC(=O)N=S(N)(=O)c1cc(C(C)(C)O)n(-c2ccccc2)n1` (single isomer, unassigned) [Example 234, (R) or (S)—N-(amino(5-(2-hydroxypropan-2-yl)-1-phenyl-1H-pyrazol-3-yl)(oxo)-λ^6-sulfaneylidene)-2-(2,6-diisopropyl-4-(2-(tetrahydro-2H-pyran-4-yl)ethyl)phenyl)acetamide], the IC50 under setting [2] was in the range of 5 to 30 µM.
As to `CC(C)c1cc(CCC2CCOCC2)cc(C(C)C)c1CC(=O)N=[S@](N)(=O)c1cc(C(C)(C)O)n(-c2ccccc2)n1` (single isomer, unassigned) [Example 235, (S) or (R)-N-(amino(5-(2-hydroxypropan-2-yl)-1-phenyl-1H-pyrazol-3-yl)(oxo)-λ^6-2-(2,6-diisopropyl-4-(2-(tetrahydro-2H-pyran-4-yl)ethyl)phenyl)acetamide], the IC50 under setting [1] is above 30 µM.
On the same count and under the same terms, the figure for `NS(=O)(=NC(=O)Cc1c2c(cc3c1CCC3)CCC2)c1cnn2c1OCCC2` (single isomer, unassigned) [Example 269, (R) or (S)-N-(amino(6,7-dihydro-5H-pyrazolo[5,1-b][1,3]oxazin-3-yl)(oxo)-λ^6-sulfaneylidene)-2-(1,2,3,5,6,7-hexahydro-s-indacen-4-yl)acetamide] is above 30 µM.
For the compound `NS(=O)(=NC(=O)Cc1c2c(cc3c1CCC3)CCC2)c1cnn2c1OCCC2` (single isomer, unassigned) [Example 270, (S) or (R)-N-(amino(6,7-dihydro-5H-pyrazolo[5,1-b][1,3]oxazin-3-yl)(oxo)-λ^6-sulfaneylidene)-2-(1,2,3,5,6,7-hexahydro-s-indacen-4-yl)acetamide], under setting [2], the IC50 fell in the range of 5 to 30 µM.
Take `CC(C)c1cc(-c2ccc3c(c2)CCOC3)cc(C(C)C)c1CC(=O)N=S(N)(=O)c1sc(C(C)(C)O)nc1CO` (single isomer, unassigned) [Example 271, (R) or (S)-N-(amino(4-(hydroxymethyl)-2-(2-hydroxypropan-2-yl)thiazol-5-yl)(oxo)-λ^6-sulfaneylidene)-2-(4-(isochroman-6-yl)-2,6-diisopropylphenyl) acetamide]: the IC50 (Table B1, class symbols) fell in the range of 0.2 to 1 µM.
As for `CC(C)c1cc(-c2ccc3c(c2)CCOC3)cc(C(C)C)c1CC(=O)N=S(N)(=O)c1sc(C(C)(C)O)nc1CO` (single isomer, unassigned) [Example 272, (S) or (R)-N-(amino(4-(hydroxymethyl)-2-(2-hydroxypropan-2-yl)thiazol-5-yl)(oxo)-λ^6-sulfaneylidene)-2-(4-(isochroman-6-yl)-2,6-diisopropylphenyl) acetamide], the IC50 (Table B1, class symbols) lay within 5 to 30 µM.
`COCc1cc(C(C)C)c(CC(=O)N=S(N)(=O)c2ncc(C(C)(C)O)s2)c(C(C)C)n1` (single isomer, unassigned) [Example 273, (S) or (R)-N-(amino (5-(2-hydroxypropan-2-yl)thiazol-2-yl)(oxo)-λ^6-sulfaneylidene)-2-(2,4-diisopropyl-6-(methoxymethyl)pyridin-3-yl)acetamide]: the IC50 under setting [1] was above 30 µM.
For `COCc1cc(C(C)C)c(CC(=O)N=S(N)(=O)c2ncc(C(C)(C)O)s2)c(C(C)C)n1` (single isomer, unassigned) [Example 274, (R) or (S)-N-(amino (5-(2-hydroxypropan-2-yl)thiazol-2-yl)(oxo)-λ^6-sulfaneylidene)-2-(2,4-diisopropyl-6-(methoxymethyl)pyridin-3-yl)acetamide], the IC50 under setting [2] lay in the range of 1 to 5 µM.
For the compound `CC(C)c1cc(C#N)c(F)c(C(C)C)c1CC(=O)N=S(N)(=O)c1cc(C(C)(C)O)n(-c2ccccc2)n1` (single isomer, unassigned) [Example 275, (R) or (S)-N-(amino (5-(2-hydroxypropan-2-yl)-1-phenyl-1H-pyrazol-3-yl)(oxo)-λ^6-sulfaneylidene)-2-(4-cyano-3-fluoro-2,6-diisopropylphenyl) acetamide], the IC50 (Table B1, class symbols) lay in the range of 0.2 to 1 µM.
`CC(C)c1cc(C#N)c(F)c(C(C)C)c1CC(=O)N=S(N)(=O)c1cc(C(C)(C)O)n(-c2ccccc2)n1` (single isomer, unassigned) [Example 276, (S) or (R)-N-(amino (5-(2-hydroxypropan-2-yl)-1-phenyl-1H-pyrazol-3-yl)(oxo)-λ^6-sulfaneylidene)-2-(4-cyano-3-fluoro-2,6-diisopropylphenyl) acetamide]: the IC50 (Table B1, class symbols) lay in the range of 5 to 30 µM.

Values taken from US20230059136A1, “THE COMPOUNDS AND COMPOSITIONS FOR TREATING CONDITIONS ASSOCIATED WITH NLRP ACTIVITY” (Novartis AG, priority 2018, published 2023).
